What is called EC50 is the concentration at which the effect is half-maximal. Low values mean greater potency, high ones weaker potency.

We go through 30 molecules from US11008323B2, “Substituted tricyclic 1,4-benzodiazepinone derivatives as allosteric modulators of group II metabotropic glutamate receptors” (Domain Therapeutics, priority 2015, dated 2021).

In the test the target is T1, human mGluR3 (hmGluR3) (Homo sapiens, UniProt Q14832).
T1 construct: expressed in transfected cells; host or cells: HEK-293 cells, transient co-transfection by electroporation
T1 sequence (Q14832 23-879): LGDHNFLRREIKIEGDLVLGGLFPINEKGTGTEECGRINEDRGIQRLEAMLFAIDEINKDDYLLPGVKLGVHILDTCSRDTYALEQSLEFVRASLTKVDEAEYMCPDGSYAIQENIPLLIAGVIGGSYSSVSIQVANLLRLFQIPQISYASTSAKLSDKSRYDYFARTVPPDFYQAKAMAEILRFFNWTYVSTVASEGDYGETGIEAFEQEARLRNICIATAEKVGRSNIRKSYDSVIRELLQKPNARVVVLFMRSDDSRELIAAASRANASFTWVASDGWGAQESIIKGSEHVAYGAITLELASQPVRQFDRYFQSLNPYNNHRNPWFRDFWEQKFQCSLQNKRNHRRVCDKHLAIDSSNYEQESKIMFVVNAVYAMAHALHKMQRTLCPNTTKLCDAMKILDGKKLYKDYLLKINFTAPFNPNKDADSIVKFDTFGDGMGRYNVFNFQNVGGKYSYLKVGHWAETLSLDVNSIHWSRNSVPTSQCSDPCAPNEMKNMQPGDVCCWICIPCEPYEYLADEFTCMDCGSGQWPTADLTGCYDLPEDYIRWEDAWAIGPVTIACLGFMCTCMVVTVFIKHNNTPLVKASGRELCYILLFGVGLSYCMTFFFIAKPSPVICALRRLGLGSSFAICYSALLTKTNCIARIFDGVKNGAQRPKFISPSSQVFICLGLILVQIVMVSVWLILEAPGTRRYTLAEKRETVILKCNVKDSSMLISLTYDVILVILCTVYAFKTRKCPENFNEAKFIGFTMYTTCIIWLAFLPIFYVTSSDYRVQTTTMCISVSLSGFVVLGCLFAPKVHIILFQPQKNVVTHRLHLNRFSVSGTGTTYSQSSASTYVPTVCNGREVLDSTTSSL
In words: Human mGluR3 positive allosteric modulator evaluation using Ca++ functional assay. Format: cell-based. The following applies: hmGluR3 transiently over-expressed in HEK-293 cells; stimulated by EC50 glutamate concentration; intracellular Ca2+ (Fluo4AM, FLIPR Tetra). The protocol:
Compounds of the present invention were tested successively for their agonist and positive allosteric modulator activities on human mGluR3 (hmGluR3) transiently over-expressed in HEK-293 cells. Compounds exert agonist activity if they are able to activate hmGluR3 by themselves, i.e., in absence of the endogenous agonist glutamate; and they exert positive allosteric modulator activity if they increase the action of the endogenous agonist glutamate.
HEK-293 cells were maintained in Modified Eagle's Medium supplemented with 10% Foetal Calf Serum, 1% Penicillin/Streptomycin and 1% non-essential amino acids at 37° C./5% CO2.
Cells were co-transfected by electroporation with four DNA plasmids encoding hmGluR3, a chimeric G protein allowing redirection of the activation signal toward intracellular calcium pathway, and two glutamate transporters so as to decrease extracellular glutamate levels and avoid receptor desensitization (Brabet I et al., Neuropharmacology 37(8), 1043-51, 1998). After transfection, cells were seeded in 75 cm^2 culture flasks, and cultured for 24 h.
Receptor activity was detected by changes in intracellular calcium measured using the fluorescent Ca^2+ sensitive dye, Fluo4AM (Molecular Probes).
The day of the assay, medium was aspirated and replaced during 3 hrs by freshly prepared buffer B (HBSS 1×, Hepes 20 mM, MgSO4-7H2O 1 mM, Na2CO3 3.3 mM, CaCl2-2H2O 1.3 mM, 0.5% BSA, Probenecid 2.5 mM). Then, cells were loaded at 37° C./5% CO2 for 1.5 hrs with buffer B containing 1 μM Fluo4AM, 0.1 mg/mL Pluronic Acid, 7 μg/mL Glutamate Pyruvate Transaminase and 2 mM sodium pyruvate. Afterwards cells were washed with buffer B. Cells were then detached from the 75 cm^2 culture flasks with Accutase® (5 min incubation at 37° C.), centrifuged (5 min at 840 rpm), resuspended in buffer B and finally seeded at a density of 30,000 cells/well in black-walled clear-bottom 384-well plates. Addition of compounds on cells and intracellular Ca^2+ measurements (excitation 485 nm, emission 525 nm) were performed by the fluorescence microplate reader FLIPR Tetra (Molecular Devices).
Agonist and positive allosteric modulator activities of compounds were consecutively evaluated on the same cells plate. Agonist activity was first tested during 10 min with the addition of compound alone on the cells. Then, the cells were stimulated by an EC50 glutamate concentration and fluorescence was recorded for additional 3 min. EC50 glutamate concentration is the concentration giving 50% of the maximal glutamate response. Agonist and/or positive allosteric modulator activity(ies) were evaluated in comparison to basal signal or signal evoked by EC50 glutamate concentration alone, respectively.
For potency determination, a dose-response test was performed using 20 concentrations of each compound of the invention. Dose-response curves were fitted using the sigmoïdal dose-response (variable slope) analysis in XLfit Scientific Curve Fitting for Excel (IDBS). EC50 of agonist/EC50 of positive allosteric modulator activity(ies) were calculated. Dose-response experiments were all performed in duplicate, two times independently.

Molecules are shown by their SMILES.

For `CCN1Cc2ccc(-c3cccnc3C)cc2-n2cc(-c3ccccc3)nc2C1=O` [Example 167, 5-Ethyl-9-(2-methylpyridin-3-yl)-2-phenyl-5,6-dihydro-4H-benzo[f]imidazo[1,2-a][1,4]diazepin-4-one], the EC50 is > 1 µM.

As for `CCc1ccc(-c2ccc3c(c2)-n2cc(-c4ccccc4)cc2C(=O)N(C)C32CC2)cn1` [Example 112, 5-methyl-2-phenyl-9-(6-ethylpyridin-3-yl)-spiro[benzo[f]pyrrolo[1,2-a][1,4]diazepine-6,1′-cyclopropan]-4(5H)-one], the 50% effective concentration (EC50) is < 0.1 µM.

Turning to `CN1C(=O)c2cccn2-c2ccc(Br)cc2C12CC2` [Example 13, 8-Bromo-5-methyl-spiro[benzo[f]pyrrolo[1,2-a][1,4]diazepine-6,1′-cyclopropan]-4(5H)-one], the EC50 is > 1 µM.

With `CN1C(=O)c2c(Cl)ccn2-c2cc(Br)ccc2C12CC2` [Example 6, 9-Bromo-3-chloro-5-methyl-spiro[benzo[f]pyrrolo[1,2-a][1,4]diazepine-6,1′-cyclopropan]-4(5H)-one], the EC50 was > 1 µM.

For the molecule `Cc1ncccc1-c1ccc2c(c1)-n1cc(Cl)cc1C(=O)N(C)C21CC1` [Example 82, 9-(2-Methyl-pyridin-3-yl)-2-chloro-5-methyl-spiro[benzo[f]pyrrolo[1,2-a][1,4]diazepine-6,1′-cyclopropan]-4(5H)-one], the concentration for a half-maximal effect (EC50) is < 0.1 µM.

For `Cc1ncccc1-c1ccc2c(c1)N1CCCC1C(=O)N(C)C21CC1` (stereo not drawn) [Example 209, 5-Methyl-9-(2-methylpyridin-3-yl)-1,2,3,3a-tetrahydro-spiro[benzo[f]pyrrolo[1,2-a][1,4]diazepine-6,1′-cyclopropan]-4(5H)-one], the concentration giving a half-maximal response (EC50) is > 1 µM.

`CN1C(=O)c2cccn2-c2cc(Br)ccc2C12CC2` [Example 1, 9-Bromo-5-methyl-spiro[benzo[f]pyrrolo[1,2-a][1,4]diazepine-6,1′-cyclopropan]-4(5H)-one] displayed an EC50 of 0.1 to 1 µM.

With `CN1C(=O)c2cc(Cl)cn2-c2cc(Br)ccc2C12CC2` [Example 5, 9-Bromo-2-chloro-5-methyl-spiro[benzo[f]pyrrolo[1,2-a][1,4]diazepine-6,1′-cyclopropan]-4(5H)-one], the concentration giving a half-maximal response (EC50) was > 1 µM.

On to `Cc1ncccc1-c1ccc2c(c1)-n1cc(C(F)F)cc1C(=O)N(C)C21CC1` [Example 201], for which the concentration for a half-maximal effect (EC50) was < 0.1 µM.

`CNc1ccc(-c2ccc3c(c2)-n2cc(-c4ccccc4)cc2C(=O)N(C)C32CC2)cn1` [Example 118, 5-Methyl-2-phenyl-9-(6-methylamino-pyridin-3-yl)-spiro[benzo[f]pyrrolo[1,2-a][1,4]diazepine-6,1′-cyclopropan]-4(5H)-one]: the half-maximal effective concentration (EC50) was < 0.1 µM.

On to `Cc1ncccc1-c1ccc2c(c1)-n1cc(-c3ccc(F)cc3)cc1C(=O)N(C)C21CC1` [Example 150], for which the EC50 was 0.1 to 1 µM.

Turning to `CCc1ncccc1-c1ccc2c(c1)-n1cc(-c3ccccc3F)cc1C(=O)N(C)C21CC1` [Example 162], the EC50 is < 0.1 µM.

In the case of `CN1C(=O)c2cccn2-c2cc(C3=CCN(c4ccncn4)CC3)ccc2C12CC2` [Example 47, 5-Methyl-9-(1-pyrimidin-4-yl-1,2,3,6-tetrahydro-pyridin-4-yl)-spiro[benzo[f]pyrrolo[1,2-a][1,4]diazepine-6,1′-cyclopropan]-4(5H)-one], the EC50 lay in the range of 0.1 to 1 µM.

In turn, `Cc1ncccc1-c1ccc2c(c1)-n1cc(Br)cc1C(=O)N(C)C21CC1` [Example 17, 2-Bromo-5-methyl-9-(2-methyl-pyridin-3-yl)-spiro[benzo[f]pyrrolo[1,2-a][1,4]diazepine-6,1′-cyclopropan]-4(5H)-one] displayed an EC50 of 0.1 to 1 µM.

For the molecule `Cc1ccc(-c2ccc3c(c2)-n2nc(-c4ccccc4)cc2C(=O)N(C)C32CC2)c(C)n1` [Example 126, 9-(2,6-Dimethyl-pyridin-3-yl)-5-methyl-2-phenyl-spiro[benzo[f]pyrazolo[1,5-a][1,4]diazepine-6,1′-cyclopropan]-4(5H)-one], the EC50 is < 0.1 µM.

`Cc1ccc(-c2ccc3c(c2)-n2cccc2C(=O)N(C)C32CC2)c(C)n1` [Example 56, 5-Methyl-9-(2,6-dimethylpyridin-3-yl)-spiro[benzo[f]pyrrolo[1,2-a][1,4]diazepine-6,1′-cyclopropan]-4(5H)-one]: the 50% effective concentration (EC50) was < 0.1 µM.

In the case of `CN1C(=O)c2cc(-c3ccccc3)cn2-c2cc(-c3ccncc3)ccc2C12CC2` [Example 102, 5-Methyl-2-phenyl-9-(pyridin-4-yl)-spiro[benzo[f]pyrrolo[1,2-a][1,4]diazepine-6,1′-cyclopropan]-4(5H)-one], the EC50 is < 0.1 µM.

Turning to `CN(C)c1ccc(-c2ccc3c(c2)-n2cc(-c4ccccc4)cc2C(=O)N(C)C32CC2)cn1` [Example 114, 5-Methyl-2-phenyl-9-(6-dimethylamino-pyridin-3-yl)-spiro[benzo[f]pyrrolo[1,2-a][1,4]diazepine-6,1′-cyclopropan]-4(5H)-one], the EC50 is < 0.1 µM.

As to `Cc1ccc(-c2ccc3c(c2)-n2cccc2C(=O)N(C)C32CC2)cn1` [Example 25, 5-Methyl-9-(6-methylpyridin-3-yl)-spiro[benzo[f]pyrrolo[1,2-a][1,4]diazepine-6,1′-cyclopropan]-4(5H)-one], the EC50 is < 0.1 µM.

On to `Cc1ncccc1-c1ccc2c(c1)-n1cc(-c3nccs3)cc1C(=O)N(C)C21CC1` [Example 157], for which the half-maximal effective concentration (EC50) is < 0.1 µM.

In the case of `CN1C(=O)c2cc(-c3ccccc3)nn2-c2cc(-c3cccc(Cl)c3)ccc2C12CC2` [Example 130, 9-(3-Chloro-phenyl)-5-methyl-2-phenyl-spiro[benzo[f]pyrazolo[1,5-a][1,4]diazepine-6,1′-cyclopropan]-4(5H)-one], the EC50 was 0.1 to 1 µM.

Turning to `CN1C(=O)c2cccn2-c2cc(-c3ccc(Cl)nc3)ccc2C12CC2` [Example 54, 5-Methyl-9-(6-chloropyridin-3-yl)-spiro[benzo[f]pyrrolo[1,2-a][1,4]diazepine-6,1′-cyclopropan]-4(5H)-one], the EC50 is < 0.1 µM.

Take `CN1C(=O)c2cc(-c3ccccc3)cn2-c2cc(-c3ccc(N)nc3)ccc2C12CC2` [Example 96, 5-Methyl-2-phenyl-9-(6-amino-pyridin-3-yl)-spiro[benzo[f]pyrrolo[1,2-a][1,4]diazepine-6,1′-cyclopropan]-4(5H)-one]: the EC50 was 0.1 to 1 µM.

Regarding `CN1C(=O)c2cccn2-c2cc(-c3ccc4nccn4c3)ccc2C12CC2` [Example 41, 5-Methyl-9-(imidazo[1,2-a]pyridin-6-yl)-spiro[benzo[f]pyrrolo[1,2-a][1,4]diazepine-6,1′-cyclopropan]-4(5H)-one], the EC50 is < 0.1 µM.

With `Cc1ncccc1-c1ccc2c(c1)-n1cc(N(C)C)cc1C(=O)N(C)C21CC1` [Example 154], the EC50 lay within 0.1 to 1 µM.

Take `Cc1ncccc1-c1ccc2c(c1)-n1nccc1C(=O)N(C)C2` [Example 217, 5-Methyl-9-(2-methylpyridin-3-yl)-5,6-dihydro-4H-benzo[f]pyrazolo[1,5-a][1,4]diazepin-4-one]: the EC50 is > 1 µM.

For the molecule `CN1C(=O)c2cccn2-c2cc(-c3ccc(N4CCCCC4)nc3)ccc2C12CC2` [Example 43, 5-Methyl-9-(3,4,5,6-tetrahydro-2H-[1,2′]bipyridinyl-5′-yl)-spiro[benzo[f]pyrrolo[1,2-a][1,4]diazepine-6,1′-cyclopropan]-4(5H)-one], the EC50 was > 1 µM.

Take `Cc1ncccc1-c1ccc2c(c1)-n1cccc1C(=O)N(C)C2C` (stereo not drawn) [Example 218, 5,6-Dimethyl-9-(2-methyl-pyridin-3-yl)-5,6-dihydro-benzo[f]pyrrolo[1,2-a][1,4]diazepin-4-one]: the concentration for a half-maximal effect (EC50) fell in the range of 0.1 to 1 µM.

`CN1C(=O)c2cc(-c3ccccc3)cn2-c2cc(-c3cncnc3)ccc2C12CC2` [Example 104, 5-Methyl-2-phenyl-9-(pyrimidin-5-yl)-spiro[benzo[f]pyrrolo[1,2-a][1,4]diazepine-6,1′-cyclopropan]-4(5H)-one] registered a half-maximal effective concentration (EC50) of 0.1 to 1 µM.

As to `Cc1ncncc1-c1ccc2c(c1)-n1cccc1C(=O)N(C)C21CC1` [Example 59, 5-Methyl-9-(4-methyl-pyrimidin-5-yl)-spiro[benzo[f]pyrrolo[1,2-a][1,4]diazepine-6,1′-cyclopropan]-4(5H)-one], the EC50 is > 1 µM.
